Columns and labels:
[1] = biological target: T1, rhinovirus 3C protease, serotype 14 (Human rhinovirus 14, UniProt P03303); assay: Inhibition of rhinovirus 3C protease (FRET assay, enzyme start); type: biochemical; details: HRV-14 3C protease, progress curves, read-out: Kobs/I
T1 construct: Recombinant rhinovirus 3C proteases; made in house
Protocol: Stock solutions (50 mM, in DMSO) of various compounds were prepared; dilutions were in the same solvent. Recombinant rhinovirus 3C proteases (see Birch et al., “Purification of recombinant human rhinovirus 14 3C protease expressed in Escherichia coli,” Protein Expr. Pur. (1995), vol. 6(5), 609-618) from serotypes 14, 16, and 2 were prepared by the following standard chromatographic procedures: (1) ion exchange using Q Sepharose Fast Flow from Pharmacia; (2) affinity chromatography using Affi-Gel Blue from Biorad; and (3) sizing using Sephadex G-100 from Pharmacia. Each assay sample contained 2% DMSO, 50 mM tris pH 7.6, 1 mM EDTA, a test compound at the indicated concentration, approximately 1 μM substrate, and 50-100 nM protease. The kobs/I values were obtained from reactions initiated by addition of enzyme rather than substrate. RVP activity was measured in the fluorescence resonance energy transfer assay. The substrate was (N-terminal) DABCYL-(Gly-Arg-Ala-Val-Phe-Gln-Gly-Pro-Val-Gly)-EDANS. In the uncleaved peptide, the EDANS fluorescence was quenched by the proximal DABCYL moiety. When the peptide was cleaved, the quenching was relieved, and activity was measured as an increase in fluorescence signal. The tabulated data in the column designated kobs/[I] were measured from progress curves in enzyme start experiments.

HRV-14 = assay: Antirhinoviral H1-HeLa cell culture assay (XTT cell protection); type: cell-based, human rhinovirus; details: Rhinovirus B, HRV14, H1-HeLa, HRV-14, H1-HeLa cells
Protocol: (§1) In this cell protection assay, the ability of compounds to protect cells against HRV infection was measured by the XTT dye reduction method, which is described in Weislow et al., J. Natl. Cancer Inst. (1989), vol. 81, 577-586. H1-HeLa cells were infected with HRV-14 at a multiplicity of infection (m.o.i.) of 0.13 (virus particles/cell) or mock-infected with medium only. Infected or mock-infected cells were resuspended at 8×10^5 cells per ml, and incubated with appropriate concentrations of the compounds to be tested. Two days later, XTT/PMS was added to test plates and the amount of formazan produced was quantified spectrophotometrically at 450/650 nm. The EC50 value was calculated as the concentration of compound that increased the percentage of formazan production in compound-treated, virus-infected cells to 50% of that produced by compound-free, mock-infected cells. The 50% cytotoxic dose (CC50) was calculated as the concentration of compound that decreased the percentage of formazan produced in compound-treated, mock-infected cells to 50% of that produced by compound-free, mock-infected cells. The therapeutic index (TI) was calculated by dividing the CC50 value by the EC50 value.
(§2) All strains of human rhinovirus (HRV) for use in this assay were purchased from American Type Culture Collection (ATCC), except for HRV serotype-14 (produced from the infectious cDNA clone constructed by Dr. Robert Rueckert, Institute for Molecular Virology, University of Wisconsin, Madison, Wis.). HRV stocks were propagated and viral assays were performed in H1-HeLa cells (ATCC). Cells were grown in minimal essential medium with 10% fetal bovine serum, available from Life Technologies (Gaithersburg, Md.).

HRV-1A = assay: as above; type: cell-based, human rhinovirus; details: Rhinovirus A, HRV1A, H1-HeLa cells
Protocol: as §1, §2

HRV-10 = assay: as above; type: cell-based; details: Human rhinovirus sp., HRV10; HRV-10, H1-HeLa cells
Protocol: as §1, §2

CAV-21 = assay: Anticoxsackieviral cell culture assay (H1-HeLa, XTT); type: cell-based, Coxsackievirus type A-21; details: Coxsackievirus; CAV-21, H1-HeLa cells
Protocol: (§3) Coxsackievirus types A-21 (CAV-21) and B3 (CVB3) were purchased from American Type Culture Collection (ATCC, Rockville, Md.). Virus stocks were propagated and antiviral assays were performed in H1-HeLa cells (ATCC). Cells were grown in minimal essential medium with 10% fetal bovine serum (Life Technologies, Gaithersburg, Md.). The ability of the compounds of this invention to protect cells against either CAV-21 or CVB3 infection was measured by the XTT dye reduction method. This method is described in Weislow et al., J. Natl. Cancer Inst. (1989), vol. 81, 577-586. H1-HeLa cells were infected with CAV-21 or CVB3 at a multiplicity of infection (m.o.i.) of 0.025 or 0.075, respectively, or mock-infected with medium only. H1-HeLa cells were plated at 4×10^4 cells per well in a 96-well plate and incubated with appropriate concentrations of the test compound. One day (CVB3) or two days (CAV-21) later, XTT/PMS was added to test plates and the amount of formazan produced was quantified spectrophotometrically at 450/650 nm. The EC50 was calculated as the concentration of compound that increased the formazan production in compound-treated, virus-infected cells to 50% of that produced by compound-free, uninfected cells. […] The therapeutic index (TI) was calculated by dividing the CC50 by the EC50.

ECHO 11 = assay: Anti-echoviral cell culture assay (MRC-5, XTT); type: cell-based, Echovirus type 11; details: Enterovirus B, MRC5; ECHO-11, MRC-5 cells
Protocol: (§4) Echovirus type 11 (ECHO 11) was purchased from ATCC (Rockville, Md.). Virus stocks were propagated and antiviral assays were performed in MRC-5 cells (ATCC). Cells were grown in minimal essential medium with 10% fetal bovine serum (Life Technologies, Gaithersburg, Md.). The ability of the compounds of this invention to protect cells against ECHO 11 infection was measured by the XTT dye reduction method (Weislow et al., J. Natl. Cancer Inst. (1989), vol. 81, 577-586). MRC-5 cells were infected with ECHO 11 at an m.o.i. of 0.003 or 0.004, respectively, or mock-infected with medium only. Infected or uninfected cells were added at 1×10^4 cells per well and incubated with appropriate concentrations of compound. Four days later, XTT/PMS was added to test plates, and the amount of formazan produced was quantified spectrophotometrically at 450/650 nm. The EC50 was calculated as the concentration of compound that increased the formazan production in compound-treated, virus-infected cells to 50% of that produced by compound-free, uninfected cells. […] The therapeutic index (TI) was calculated by dividing the CC50 by the EC50. Activity of the compounds against enterovirus type 70 (EV 70) may be measured by the same assay as described above in this section. […]

EV 70 = assay: Anti-enteroviral cell culture assay (MRC-5, XTT); type: cell-based, enterovirus type 70; details: Enterovirus D, MRC5; ENT-70, MRC-5 cells
Protocol: as §4

[2] = Cytotoxicity in mock-infected cells of the antirhinoviral assay (XTT); type: cell-based; details: human, H1-HeLa cells
Protocol: as §1, §2

H1-HeLa cells = assay: as above; type: cell-based
Protocol: as §1, §2

[3] = Cytotoxicity in uninfected cells of the anticoxsackieviral assay (XTT); type: cell-based; details: human, H1-HeLa cells, table line CAV-21
Protocol: as §3

[4] = Cytotoxicity in uninfected cells of the anti-echoviral/anti-enteroviral assay (XTT); type: cell-based; details: human, MRC-5 cells, table line ECHO-11
Protocol: as §4

MRC-5 cells = assay: as above; type: cell-based; details: table line ENT-70
Protocol: as §4

HRV-25 = assay: Antirhinoviral H1-HeLa cell culture assay (XTT cell protection); type: cell-based; details: Human rhinovirus sp., HRV25; HRV-25, H1-HeLa cells
Protocol: as §1, §2

HRV-39 = assay: as above; type: cell-based; details: Human rhinovirus sp., HRV39; HRV-39, H1-HeLa cells
Protocol: as §1, §2

HRV-3 = assay: as above; type: cell-based; details: Human rhinovirus sp., HRV3; HRV-3, H1-HeLa cells
Protocol: as §1, §2

HRV-9 = assay: as above; type: cell-based; details: Human rhinovirus sp., HRV9; HRV-9, H1-HeLa cells
Protocol: as §1, §2

HRV-2 = assay: as above; type: cell-based, human rhinovirus; details: Rhinovirus A, HRV2; HRV-2, H1-HeLa cells
Protocol: as §1, §2

HRV-16 = assay: as above; type: cell-based; details: Human rhinovirus sp., HRV16; HRV-16, H1-HeLa cells
Protocol: as §1, §2

HRV-87 = assay: as above; type: cell-based; details: Human rhinovirus sp., HRV87; HRV-87, H1-HeLa cells
Protocol: as §1, §2

T1 sequence (P03303 1538-1719): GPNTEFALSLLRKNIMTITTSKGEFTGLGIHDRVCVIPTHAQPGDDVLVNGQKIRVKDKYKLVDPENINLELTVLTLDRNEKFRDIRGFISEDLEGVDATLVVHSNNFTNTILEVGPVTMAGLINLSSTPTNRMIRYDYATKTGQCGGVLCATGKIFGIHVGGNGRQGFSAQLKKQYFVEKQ

Structure (SMILES)	kinact/KI [1]	EC50 (HRV-14)	EC50 (HRV-1A)	EC50 (HRV-10)	EC50 (HRV-25)	EC50 (HRV-39)	EC50 (HRV-3)	EC50 (HRV-9)	EC50 (HRV-2)	EC50 (HRV-16)	EC50 (HRV-87)	CC50 at 2 days ([2]; table line HRV-14)	CC50 (H1-HeLa cells; table line HRV-1A)	CC50 (H1-HeLa cells; table line HRV-10)	CC50 (H1-HeLa cells; table line HRV-3)	CC50 (H1-HeLa cells; table line HRV-9)	CC50 (H1-HeLa cells; table line HRV-25)	CC50 (H1-HeLa cells; table line HRV-39)	CC50 at 2 days ([2]; table line HRV-1A)	CC50 (H1-HeLa cells; table line HRV-2)	also measured
CCOC(=O)/C=C/[C@H](C[C@@H]1CCNC1=O)NC(=O)[C@H](Cc1ccccc1)NC(=O)c1ccc(-c2cccc3ccccc23)[nH]1 [Compound 25, 4S-{2S-[(5-Naphthalen-1-yl-1H-pyrrole-2-carbonyl)-amino]-3-phenyl-propionylamino}-5-(2-oxo-pyrrolidin-3S-yl)-pent-2-enoic acid ethyl ester]	690000 M⁻¹ s⁻¹	34 nM	89 nM	148 nM								> 10000 nM	> 10000 nM	> 10000 nM							EC50 (CAV-21): 200 nM; EC50 (ECHO 11): 44 nM; EC50 (EV 70): 3 nM; CC50 at 2 days [3]: > 10000 nM; CC50 at 4 days [4]: > 10000 nM; CC50 (MRC-5 cells): > 10000 nM
C#CC[C@H](NC(=O)c1ccc(-c2ccccc2C(F)(F)F)[nH]1)C(=O)N[C@H](/C=C/C(=O)OCC)C[C@@H]1CCNC1=O [Compound 29, 5-(2-Oxo-pyrrolidin-3S-yl)-4S-(2S-{[5-(2-trifluoromethyl-phenyl)-1H-pyrrole-2-carbonyl]-amino}-pent-4-ynoylamino)-pent-2(trans)-enoic acid ethyl ester]	103000 M⁻¹ s⁻¹	150 nM	54 nM	27 nM	316 nM	180 nM	65 nM	119 nM				> 10000 nM	> 10000 nM	> 10000 nM	> 10000 nM	> 10000 nM	> 10000 nM	> 10000 nM			
C#CC[C@H](CC(=O)c1ccc(-c2ccccc2C(F)(F)F)[nH]1)C(=O)N[C@H](/C=C/C(=O)OCC)C[C@@H]1CCNC1=O [Compound 36]			145 nM	330 nM	329 nM	235 nM	145 nM	144 nM				> 10000 nM	> 10000 nM	> 10000 nM	> 10000 nM	> 10000 nM	> 10000 nM	> 10000 nM			

The next lines start with results.

kinact/KI [1]	EC50 (HRV-14)	EC50 (HRV-1A)	EC50 (HRV-10)	EC50 (HRV-25)	EC50 (HRV-39)	EC50 (HRV-3)	EC50 (HRV-9)	EC50 (HRV-2)	EC50 (HRV-16)	EC50 (HRV-87)	Structure (SMILES)	CC50 at 2 days ([2]; table line HRV-14)	CC50 (H1-HeLa cells; table line HRV-1A)	CC50 (H1-HeLa cells; table line HRV-10)	CC50 (H1-HeLa cells; table line HRV-3)	CC50 (H1-HeLa cells; table line HRV-9)	CC50 (H1-HeLa cells; table line HRV-25)	CC50 (H1-HeLa cells; table line HRV-39)	CC50 at 2 days ([2]; table line HRV-1A)	CC50 (H1-HeLa cells; table line HRV-2)	also measured
33000 M⁻¹ s⁻¹	136 nM	537 nM	446 nM	1510 nM	593 nM	605 nM	885 nM	353 nM	1490 nM	97 nM	C#CC[C@H](CC(=O)c1ccc(-c2ccccc2Cl)[nH]1)C(=O)N[C@H](/C=C/C(=O)OCC)C[C@@H]1CCNC1=O [Compound 38, 4S-(2R-{2-[5-(2-Chloro-phenyl)-1H-pyrrol-2-yl]-2-oxo-ethyl}-pent-4-ynoylamino)-5-(2-oxo-pyrrolidin-3S-yl)-pent-2(trans)-enoic acid ethyl ester]			> 10000 nM	> 10000 nM	> 10000 nM	> 10000 nM	> 10000 nM	> 10000 nM	> 10000 nM	CC50 (H1-HeLa cells; table line HRV-14): > 10000 nM; CC50 (H1-HeLa cells; table line HRV-16): > 10000 nM; CC50 (H1-HeLa cells; table line HRV-87): > 10000 nM
20100 M⁻¹ s⁻¹	214 nM	338 nM	428 nM	1320 nM	518 nM	595 nM	665 nM	214 nM	952 nM	83 nM	C#CC[C@H](CC(=O)c1ccc(-c2ccccc2C)[nH]1)C(=O)N[C@H](/C=C/C(=O)OCC)C[C@@H]1CCNC1=O [Compound 39, 5-(2-Oxo-pyrrolidin-3S-yl)-4S-{2R-[2-oxo-2-(5-o-tolyl-1H-pyrrol-2-yl)-ethyl]-pent-4-ynoylamino}-pent-2(trans)-enoic acid ethyl ester]			> 10000 nM	> 10000 nM	> 10000 nM	> 10000 nM	> 10000 nM	> 10000 nM	> 10000 nM	CC50 (H1-HeLa cells; table line HRV-14): > 10000 nM; CC50 (H1-HeLa cells; table line HRV-16): > 10000 nM; CC50 (H1-HeLa cells; table line HRV-87): > 10000 nM

Source: patent US6872745B2, “Antipicornaviral compounds and compositions, their pharmaceutical uses, and materials for their synthesis” (Agouron Pharmaceuticals, Inc., priority 2000, dated 2005)
